Source: US11213029B2 (priority 2017, dated 2022)
Entries after “also recorded” stand apart in the source; their conditions may differ. Where two headings read alike, the source gives them in different places.

How the values were obtained:
Format in all cases: cell-based
[1] = tested on: Xanthomonas oryzae pv. oryzae (Xoo); conditions: 8 mm paper disc, 30° C., 24 hours; for degree of inhibition against the growth of Xoo: 10 mM or 20 mM, dark condition, FIGS. 2 and 3; for degree of inhibition against the growth of Xoo (inhibition radius): 10 mM, FIG. 1
[2] = tested on: Xanthomonas oryzae pv. oryzae (Xoo); conditions: biplate, paper disc on opposite side, 10 mM, 30° C., dark condition, 24 hours; FIG. 4
Magnaporthe oryzae = conditions: 500 mM (40 μl) on disc, 1.5 cm apart, 28° C., 96 hours; FIG. 7
Xanthomonas oryzae = conditions: by volatility, same manner as Example 3 (10 mM); FIG. 5

Compound	degree of inhibition against the growth of Xoo [1]	degree of inhibition against the growth of Xoo by volatility [2]	growth inhibition of Magnaporthe oryzae (Magnaporthe oryzae)	inhibitory effect against the growth of Xanthomonas oryzae compared to Xanthomonas fragariae and Xanthomonas axonopodis (Xanthomonas oryzae)	degree of inhibition against the growth of Xoo (inhibition radius) [1]	degree of inhibition against the growth of Xoo ([1]; listed as (S)-(+)-carvone)	degree of inhibition against the growth of Xoo ([1]; listed as (R)-(−)-carvone)
C=C(C)C1CCC2(C)OC2C1 (single isomer, unassigned; (-)) [(−)-limonene oxide]	effect of directly inhibiting the growth	did not show a strong inhibitory effect against the growth but showed a larger area for the inhibitory effect compared to those of carveol and carvone	effect of inhibiting the growth	–	–	–	–
C=C(C)[C@H]1CC=C(C)CC1 [(R)-(+)-limonene, R-(+)-limonene, reference compound]	–	no significant effect	–	–	–	–	–
C=C(C)[C@@H]1CC=C(C)CC1 [(S)-(−)-limonene, S-(−)-limonene, reference compound]	–	no significant effect	inhibited the growth	more specifically significant inhibitory effect against the growth of Xanthomonas oryzae	inhibitory effect	–	–
C=C(C)C1CC=C(C)[C@@H](O)C1 (stereo partly drawn) [L-carveol]	effect of directly inhibiting the growth; also recorded: particularly strong inhibitory effect	strong inhibitory effect	effect of inhibiting the growth	more specifically significant inhibitory effect against the growth of Xanthomonas oryzae	larger inhibition radius than that of limonene	–	–
C=C(C)[C@H]1CC=C(C)C(=O)C1 [S-(+)-carvone]	effect of directly inhibiting the growth	strong inhibitory effect	effect of inhibiting the growth	more specifically significant inhibitory effect against the growth of Xanthomonas oryzae	larger inhibition radius than that of limonene	particularly strong inhibitory effect	–
Cc1ccc(C(C)C)cc1O [carvacrol]	effect of directly inhibiting the growth	–	effect of inhibiting the growth	–	–	–	–
CC1=CCC(C(C)(C)O)CC1 (stereo not drawn) [α-terpineol]	effect of directly inhibiting the growth	–	effect of inhibiting the growth	–	–	–	–
(+)-isopulegol	effect of directly inhibiting the growth	–	effect of inhibiting the growth	–	–	–	–
(+)-limonene oxide	effect of directly inhibiting the growth	–	effect of inhibiting the growth	–	–	–	–
(S)-(−)-perillyl alcohol	effect of directly inhibiting the growth	–	effect of inhibiting the growth	–	–	–	–
(−)-isopulegol	effect of directly inhibiting the growth	–	effect of inhibiting the growth	–	–	–	–
R-(−)-carvone	effect of directly inhibiting the growth	strong inhibitory effect	effect of inhibiting the growth	–	–	–	particularly strong inhibitory effect
